The record followed here is US12667686B2, “Nitric oxide generating systems” (NOTA Laboratories, LLC, priority 2019, dated 2026).

A short description of the series: GSNO stability as a function of pH. It is filed as physicochemical. Conditions: alkaline conditions. How it is done:
The stability of the formulations was tested via UV/Vis analysis and/or via the electrochemical NOA.

With `N[C@@H](CCC(=O)N[C@@H](CSN=O)C(=O)NCC(=O)O)C(=O)O` [GSNO, S-nitrosoglutathione], the “pH above which GSNO instability and hence NO generation begins to increase” value is on record as “above 8.5”.
